Measured values from PubChem BioAssay (NCI).
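Interpolation was linear, between the two tested concentrations surrounding the appropriate level; five concentrations were tested over 48 hours in 96-well plates. TGI: total growth inhibition.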

What was measured:
Assay in all cases: NCI anticancer screen, dose series, 48 h
786-0 renal = test system: 786-0 renal
A549 NSCLC = test system: A549 NSCLC
ACHN renal = test system: ACHN renal
BT-549 breast = test system: BT-549 breast
CAKI-1 renal = test system: CAKI-1 renal
CCRF-CEM leukemia = test system: CCRF-CEM leukemia
COLO 205 colon = test system: COLO 205 colon
DU-145 prostate = test system: DU-145 prostate
EKVX NSCLC = test system: EKVX NSCLC
HCT-116 colon = test system: HCT-116 colon
HCT-15 colon = test system: HCT-15 colon
HL-60(TB) leukemia = test system: HL-60(TB) leukemia
HOP-62 NSCLC = test system: HOP-62 NSCLC
HS 578T breast = test system: HS 578T breast
HT29 colon = test system: HT29 colon
IGROV1 ovarian = test system: IGROV1 ovarian
KM12 colon = test system: KM12 colon
LOX IMVI melanoma = test system: LOX IMVI melanoma
M14 melanoma = test system: M14 melanoma
MALME-3M melanoma = test system: MALME-3M melanoma
MCF7 breast = test system: MCF7 breast
MDA-MB-231 breast = test system: MDA-MB-231 breast
MDA-MB-435 = test system: MDA-MB-435
MDA-N = test system: MDA-N
MOLT-4 leukemia = test system: MOLT-4 leukemia
NCI-H23 lung = test system: NCI-H23 lung
NCI-H460 lung = test system: NCI-H460 lung
NCI-H522 lung = test system: NCI-H522 lung
NCI/ADR-RES ovarian = test system: NCI/ADR-RES ovarian
OVCAR-3 ovarian = test system: OVCAR-3 ovarian
OVCAR-4 ovarian = test system: OVCAR-4 ovarian
OVCAR-5 ovarian = test system: OVCAR-5 ovarian
OVCAR-8 ovarian = test system: OVCAR-8 ovarian
PC-3 prostate = test system: PC-3 prostate
RXF 393 renal = test system: RXF 393 renal
SF-268 CNS = test system: SF-268 CNS
SF-295 CNS = test system: SF-295 CNS
SF-539 CNS = test system: SF-539 CNS
SK-MEL-2 melanoma = test system: SK-MEL-2 melanoma
SK-MEL-28 melanoma = test system: SK-MEL-28 melanoma
SK-MEL-5 melanoma = test system: SK-MEL-5 melanoma
SK-OV-3 ovarian = test system: SK-OV-3 ovarian
SN12C renal = test system: SN12C renal
SNB-19 CNS = test system: SNB-19 CNS
SNB-75 CNS = test system: SNB-75 CNS
SR leukemia = test system: SR leukemia
SW-620 colon = test system: SW-620 colon
T-47D breast = test system: T-47D breast
TK-10 renal = test system: TK-10 renal
UACC-257 melanoma = test system: UACC-257 melanoma
UACC-62 melanoma = test system: UACC-62 melanoma
UO-31 renal = test system: UO-31 renal
HCC-2998 colon = test system: HCC-2998 colon
HOP-92 NSCLC = test system: HOP-92 NSCLC
K-562 leukemia = test system: K-562 leukemia
NCI-H226 lung = test system: NCI-H226 lung
RPMI-8226 leukemia = test system: RPMI-8226 leukemia
U251 CNS = test system: U251 CNS

SMILES: COC(=O)c1ccc(Oc2nc3ccccc3nc2-c2cccs2)cc1
- TGI (786-0 renal): > 100 µM
- TGI (A549 NSCLC): 76.9 µM
- TGI (ACHN renal): > 100 µM
- TGI (BT-549 breast): > 100 µM
- TGI (CAKI-1 renal): > 100 µM
- TGI (CCRF-CEM leukemia): > 100 µM
- TGI (COLO 205 colon): > 100 µM
- TGI (DU-145 prostate): > 100 µM
- TGI (EKVX NSCLC): > 100 µM
- TGI (HCT-116 colon): > 100 µM
- TGI (HCT-15 colon): > 100 µM
- TGI (HL-60(TB) leukemia): > 100 µM
- TGI (HOP-62 NSCLC): 24.9 µM
- TGI (HS 578T breast): 63.3 µM
- TGI (HT29 colon): > 100 µM
- TGI (IGROV1 ovarian): > 100 µM
- TGI (KM12 colon): > 100 µM
- TGI (LOX IMVI melanoma): > 100 µM
- TGI (M14 melanoma): > 100 µM
- TGI (MALME-3M melanoma): > 100 µM
- TGI (MCF7 breast): > 100 µM
- TGI (MDA-MB-231 breast): 57.8 µM
- TGI (MDA-MB-435): > 100 µM
- TGI (MDA-N): > 100 µM
- TGI (MOLT-4 leukemia): > 100 µM
- TGI (NCI-H23 lung): 74.5 µM
- TGI (NCI-H460 lung): > 100 µM
- TGI (NCI-H522 lung): > 100 µM
- TGI (NCI/ADR-RES ovarian): > 100 µM
- TGI (OVCAR-3 ovarian): > 100 µM
- TGI (OVCAR-4 ovarian): > 100 µM
- TGI (OVCAR-5 ovarian): > 100 µM
- TGI (OVCAR-8 ovarian): > 100 µM
- TGI (PC-3 prostate): > 100 µM
- TGI (RXF 393 renal): > 100 µM
- TGI (SF-268 CNS): 66 µM
- TGI (SF-295 CNS): 48 µM
- TGI (SF-539 CNS): > 100 µM
- TGI (SK-MEL-2 melanoma): > 100 µM
- TGI (SK-MEL-28 melanoma): > 100 µM
- TGI (SK-MEL-5 melanoma): > 100 µM
- TGI (SK-OV-3 ovarian): > 100 µM
- TGI (SN12C renal): > 100 µM
- TGI (SNB-19 CNS): 86.1 µM
- TGI (SNB-75 CNS): 26 µM
- TGI (SR leukemia): > 100 µM
- TGI (SW-620 colon): > 100 µM
- TGI (T-47D breast): > 100 µM
- TGI (TK-10 renal): 86.8 µM
- TGI (UACC-257 melanoma): > 100 µM
- TGI (UACC-62 melanoma): > 100 µM
- TGI (UO-31 renal): > 100 µM

SMILES: COc1ccc(C(C#N)NC23CC4CC(CC(C4)C2)C3)cc1OC (stereo not given)
- TGI (786-0 renal): > 100 µM
- TGI (A549 NSCLC): > 100 µM
- TGI (ACHN renal): > 100 µM
- TGI (BT-549 breast): > 100 µM
- TGI (CAKI-1 renal): > 100 µM
- TGI (CCRF-CEM leukemia): > 100 µM
- TGI (COLO 205 colon): > 100 µM
- TGI (DU-145 prostate): > 100 µM
- TGI (EKVX NSCLC): > 100 µM
- TGI (HCC-2998 colon): > 100 µM
- TGI (HCT-116 colon): > 100 µM
- TGI (HCT-15 colon): > 100 µM
- TGI (HL-60(TB) leukemia): > 100 µM
- TGI (HOP-62 NSCLC): > 100 µM
- TGI (HOP-92 NSCLC): > 100 µM
- TGI (HS 578T breast): > 100 µM
- TGI (HT29 colon): > 100 µM
- TGI (IGROV1 ovarian): > 100 µM
- TGI (K-562 leukemia): > 100 µM
- TGI (KM12 colon): > 100 µM
- TGI (LOX IMVI melanoma): > 100 µM
- TGI (M14 melanoma): > 100 µM
- TGI (MALME-3M melanoma): > 100 µM
- TGI (MCF7 breast): > 100 µM
- TGI (MDA-MB-231 breast): > 100 µM
- TGI (MDA-MB-435): > 100 µM
- TGI (MDA-N): > 100 µM
- TGI (MOLT-4 leukemia): > 100 µM
- TGI (NCI-H226 lung): > 100 µM
- TGI (NCI-H23 lung): > 100 µM
- TGI (NCI-H460 lung): > 100 µM
- TGI (NCI-H522 lung): > 100 µM
- TGI (NCI/ADR-RES ovarian): > 100 µM
- TGI (OVCAR-3 ovarian): > 100 µM
- TGI (OVCAR-4 ovarian): > 100 µM
- TGI (OVCAR-5 ovarian): > 100 µM
- TGI (OVCAR-8 ovarian): > 100 µM
- TGI (PC-3 prostate): > 100 µM
- TGI (RPMI-8226 leukemia): > 100 µM
- TGI (RXF 393 renal): > 100 µM
- TGI (SF-268 CNS): > 100 µM
- TGI (SF-295 CNS): > 100 µM
- TGI (SF-539 CNS): > 100 µM
- TGI (SK-MEL-2 melanoma): > 100 µM
- TGI (SK-MEL-28 melanoma): > 100 µM
- TGI (SK-MEL-5 melanoma): > 100 µM
- TGI (SK-OV-3 ovarian): > 100 µM
- TGI (SN12C renal): > 100 µM
- TGI (SNB-19 CNS): > 100 µM
- TGI (SNB-75 CNS): > 100 µM
- TGI (SR leukemia): > 100 µM
- TGI (SW-620 colon): > 100 µM
- TGI (T-47D breast): > 100 µM
- TGI (TK-10 renal): > 100 µM
- TGI (U251 CNS): > 100 µM
- TGI (UACC-257 melanoma): > 100 µM
- TGI (UACC-62 melanoma): > 100 µM
- TGI (UO-31 renal): > 100 µM
